Laboratory results reported in US20130012473A1, “COMBINED USE OF PHOSPHOLIPID AND SULFATE GROUPS-CARRYING POLYSACCHARIDES FOR INHIBITING METASTATIC SPREAD” (KTB TUMORFORSCHUNGSGESELLSCHAFT MBH, priority 2010, published 2013).

Legend:
[1] = test system: B16.F10 cells; assay: Fatty acid composition of cell lysates by GC analysis; assay type: cell-based, mouse
Procedure: Determination of fatty acid composition in cells and culture medium: Lipid extraction was performed according to the modified method of Bligh and Dyer (Bligh, E. G. and Dyer, W. J., Can. J. Biochem. Physiol. 37:911-917 (1959). For derivatization, the dried lipid extracts were subjected to methanol and TMSH and heated up to 100° C. for 10 min (Techne Dri Block DB-3D Techne, Stone, UK). Gas chromatography analysis was performed by an HP 5890 Series II Plus equipped with autosampler GC/SFC injector and flame ionisation detector (FID) with helium as carrier gas at 1 ml/min. Oven temperature program started with 150° C. for 3 min, up to 220° C. with a rate of 5° C./min, 220° C. for 3.5 min, split injection (split flow 100 ml/min, split ratio 1:100), 5 μl of injection volume, injector temperature 260° C. and FID at 280° C. on an Agilent DB-23 column (30 m, 0.25 mm ID, 0.25 μm). Integration of peak areas was performed with the HP software HP GC ChemStation (Rev.A.06.03[509]) running the GC system. Identification of peaks was accomplished by comparison to a fatty acid standard mixture.
Example 3: Cell membrane alterations induced by LysoPC treatment. In order to analyze membrane alterations caused by exogenous LysoPC the kinetics of changed fatty acid profiles of B16.F10 cells were evaluated by GC analysis. […] Between 48 h and 72 h, a plateau was apparently reached (C17:0: ˜55%). […]

[2] = test system: B16.F10 ELN melanoma cells; assay: In vivo bioluminescence imaging of metastatic spread; design: species or system mouse; settings: measured once weekly
Procedure: Metastatic spread was also measured once weekly by in vivo bioluminescence as described previously (Jantscheff, P. et al., Prostate 69:1151-1163 (2009)). Overlays of in vivo images and mouse photographs allowed to localize the metastatic lesions in lung and at the injection sites (D: black arrows) even in late images (D: day 14).

[3] = test system: B16.F10 cells; assay: SACED cell migration assay on fibronectin; assay type: cell-based, mouse; settings: 450 μM LysoPC, fibronectin layers
Procedure: Quantification of cell motility: Cell migration of B16.F10 cells cultivated on fibronectin (Sigma-Aldrich Chemie) covered dishes was determined with or without LysoPC. […] (Nikon, Dusseldorf, Germany) and an incubation chamber for constant temperature, applying NIS Elements AR 2.30 software and a camera (COOL-1300I; Vosskuhler GmbH, Germany)
Lamella dynamics and cell migration velocity were analyzed by the computer-assisted stroboscopic analysis of cell dynamics (SACED). At least 15 individual cells, incubated with or without LysoPC, were monitored over a period of 10 min by capturing digital images every 2 s. Subsequently, eight areas of interest were marked on each image by lines that crossed the cell lamella. The resulting 1 pixel wide areas were cut and lined up in time space plots that allowed the quantification of relevant motility data (Hinz, B. et al., Exp. Cell. Res. 251:234-243 (1999)).

[4] = test system: VLA-4; assay: Flow cytometry, VLA-4 surface expression (anti-mouse CD49d mAb); assay type: cell-based; settings: repeatedly incubated with 450 μM LysoPC for 13 days
Procedure: FIG. 3: Impact of exogenous LysoPC on the surface expression of VLA-4 or VCAM-1- and P-selectin-ligands. (A) Surface expression of VLA-4 on B16.F10 cells treated with 450 μM LysoPC for 13 days was controlled by flow cytometric analysis. […] FACS histograms (A-C) show one representative of three independent experiments. In all experiments cells only incubated with the respective FITC-conjugated detection antibody served as control.

## CCCCCCCCCCCCCCCCC(=O)OC[C@@H](O)COP(=O)([O-])OCC[N+](C)(C)C [LysoPC]
[1]; 48 h after incubation in LysoPC-free DMEM medium
  reduction of fatty acid ratio after replacing LysoPC medium: 10-15%
[1]; repeated feeding (up to six times) every 48 h
  membrane composition on repeated feeding: did not further change the membrane composition
[2]
  quantification of metastatic spread by in vivo bioluminescence, differences LysoPC-treated vs untreated: could not confirm
[3]
  lamellipodia dynamics (frequencies of protrusion and retraction): attenuated dynamics (p<0.05) of lamellipodia protrusion and retraction
[3]; p<0.05
  lamellipodia retraction velocity: slower lamellipodia retraction velocity
[4]
  VLA-4 receptor expression: did not influence VLA-4 receptor expression
